In ChEMBL document CHEMBL1154834, “A theoretical study of the structure-radical scavenging activity of trans-resveratrol analogues and cis-resveratrol in gas phase and water environment” (Eur J Med Chem, 2010):

Assay: Antioxidant activity assessed as concentration required to double citronellal oxidation half life by thermo-oxidation method relative to control
Format: functional

Structure (SMILES) | Activity [µM]
Oc1ccc(/C=C\c2cc(O)cc(O)c2)cc1 | 241
Oc1ccc(/C=C/c2cc(O)cc(O)c2)cc1 | 135
Oc1ccc(CCc2cc(O)cc(O)c2)cc1 | 260
